Test results reported in patent US20180333386A1, “AGENTS USEFUL FOR TREATING FRIEDREICH'S ATAXIA AND OTHER NEURODEGENERATIVE DISEASES” (IXCHEL PHARMA LLC, priority 2011, published 2018).
Entries after “also recorded” stand apart in the source; their conditions may differ. Structures can show the parent of a compound that is named as a salt.

Legend:
[1] = system: frataxin deficient 50B11 dorsal root ganglion cell line; test: Thiol-antioxidant inhibitors in siRNA-mediated frataxin deficient 50B11 dorsal root ganglion cell line; assay type: cell-based; details: for death of neurons with frataxin deficiency on treatment: siRNA frataxin knockdown vs. control
Method: Therefore, 11 inhibitors of these antioxidants were tested in siRNA-mediated frataxin deficient 50B11 dorsal root ganglion cell line. […] The major mitochondrial antioxidant system is thioredoxin reductase. Auranofin is a specific inhibitor of thioredoxin reductase, and diamide is a known oxidizer of thioredoxin. Thus the diamide screen identifies compounds that rescue from thioredoxin reductase deficiency, which include inducers of Nrf2, which are known to induce thioredoxin reductase and other antioxidant functions.

[2] = system: human FRDA patient fibroblasts; test: Diamide screening assay: protection of FRDA patient fibroblasts from diamide toxicity (Calcein-AM viability); assay type: cell-based; details: for protection from diamide toxicity: 200 micromolar diamide, result in words; for EC50: Homo sapiens, Fibroblast; for EC50 / maximum effect of protection from diamide toxicity, fold increase from baseline: n=3; for maximum effect of protection from diamide toxicity, fold increase from baseline: dose-response
From the text: The cell-based assay was further optimized for high-throughput screening in 96-well plates, with an excellent screening window and low variability, represented by a Z′ value of 0.75 (n=5) and was used to screen a library of 1600 drugs that have been approved for clinical use in the USA. Drugs that rescued at DMSO mean+two standard deviations were repeated an additional two times. Compounds that rescued in >2 screens advanced to secondary screening, which included replication of protective effect in a concentration-dependent manner, 0.01-10 μM. […] Additional mechanisms are listed below.
Diamide Screening Method Format: On the day one of the assay, cell density was determined using the Vi-Cell counter, and a volume corresponding to 5,500 human FRDA patient fibroblasts per well was aliquoted into 96-well black/clear poly-d-lysine coated plates in growth media, and the cells were allowed 3 hours to attach. Drugs (10 mM stock in DMSO) are dispensed into wells after an intermediate dilution in PBS, giving a final DMSO concentration of 0.1% using an electronic multichannel pipette. Test compounds were tested at 10 micromolar. There were 8 negative control (0.1% DMSO only) and 8 positive control (300 micromolar DTT) wells on each plate. Plates were incubated at 37 C and 5% CO2 for twenty-four hours after which 200 micromolar diamide was added to all wells. Plates were incubated for an additional 16 hours as before. Cells were washed with PBS and incubated with Calcein-AM cell viability dye (Invitrogen, Carlsbad, Calif., USA) and fluorescence was read with a PolarStar Omega plate reader (BMG LabTech, Cary, N.C.). Hits were scored as Basal Median+3×MAD.

[3] = system: frataxin (FXN) protein in FRDA patient lymphoblasts; test: Frataxin protein level in FRDA patient lymphoblasts by Western blot; assay type: cell-based, human; details: 48 hr
Method: (§1) To test if one mechanism of protection from diamide toxicity for dyclonine was an increase in frataxin protein levels, HeLa cells or FRDA patient lymphoblasts were cultured for 48 hr in the presence of 10 micromolar dyclonine in 6 well dishes. Cells were harvested and whole cell lysates were analyzed by Western blot (protocol below). Representative blots are shown for HeLa cells (FIG. 5A) and FRDA and healthy siblings lymphoblasts (FIG. 5B), as well as densitometry normalization to actin. Dyclonine induction of FXN levels was consistent over multiple experiments (FIG. 5C).
(§2) Western Blot Protocol: Forty micrograms of whole-cell lysates were analyzed on […] Bis-Tris gels (Invitrogen, Carsbad, Calif., USA). Electrophoresis was carried out according to the manufacturer's instruction. After electrophoresis, the proteins were transferred to nitrocellulose membranes by iBlot device (Invitrogen). The membranes were blocked with blocking buffer (Odyssey, Lincoln, Nebr., USA) for 1 h and incubated overnight with primary antibodies in blocking buffer: anti-frataxin anti-β-actin, tubulin, (Sigma). Afterwards, the membranes were incubated with a corresponding pair of IRDye 680CW- and IRDye 800CW-coupled (Odyssey) secondary antibodies for 1 h. The membranes were washed four times with 1× Tris-buffered saline with Tween 20 and proteins were visualized with a LI-COR infrared imager (Odyssey). The pictures were processed by Odyssey version 3.0 infrared imaging software.
(§3) An additional hit in the diamide screening assay in FRDA fibroblasts was dimethyl fumarate (protocol above). […] To test if the mechanism of protection from diamide toxicity was an increase in frataxin protein levels, HeLa cells or FRDA patient lymphoblasts were cultured for 48 hr in the presence of 0.03-30 micromolar dimethyl fumarate in 12-well dishes. Cells were harvested and whole cell lysates were analyzed by Western blot (protocol above). Representative blots are shown for HeLa cells (FIG. 9A) and FRDA lymphoblasts (FIG. 9B). FXN was induced 1.37 fold ±0.1 (n=3) in HeLa cells, and 2.4 fold ±0.9 (n=3) in FRDA lymphoblasts.
An additional hit in the diamide screening assay (protocol above) in FRDA fibroblasts was the phenathiazine, tolonium cl. […] To test if the mechanism of protection from diamide toxicity was an increase in frataxin protein levels, the phenothiazines tolonium cl and methylene blue were tested. […] Cells were harvested and whole cell lysates were analyzed by Western blot (protocol above). […]
To test if Methylene blue also potentiates DMF-mediated FXN induction, FRDA patient lymphoblasts were cultured for 48 hr in the presence of 3 micromolar dimethyl fumarate and 3 micromolar methylene blue in 6 well dishes. Cells were harvested and whole cell lysates were analyzed by Western blot (protocol above).

[4] = system: frataxin (FXN) protein in YG8 FRDA transgenic mouse; test: Frataxin level in YG8 FRDA transgenic mouse model (Western blot of cerebellum and splenocytes); assay type: in vivo; details: for FXN expression in vivo, FXN/actin densitometry: hemizygous YG8 mice; for frataxin in brains and other tissues of the animal model of FRDA: result in words
Method: Dyclonine increases frataxin levels in vivo. To determine ability of dyclonine to reverse the in vivo FXN protein defect, the YG8 FRDA transgenic mouse model was chosen. Hemizygous animals with the least frataxin were separated into vehicle and treatment groups. Homozygous mice (two copies of FXN gene) were used as positive control. Animals were dosed daily with 1 mg/kg dyclonine via intraperitoneal injection for 6 days. At the end of the study, the animals were sacrificed, and processed for biochemical analysis, i.e. Western blots of treated and vehicle groups of Cerebellum and splenocyte frataxin level. Western blot of cerebellum and splenocytes is shown (FIG. 6A) and densitometry of FXN/actin normalization (FIG. 6B) showing dyclonine induces FXN expression in vivo by 1.5-2 fold.
Of these 20, 8 were tested in the YG8 transgenic mouse model. […] Animals were dosed daily with 1-10 mg/kg drug via intraperitoneal injection for 6 days. At the end of the study, the animals were sacrificed, and processed for biochemical analysis, i.e. Western blots (protocol above) of treated and vehicle groups of Cerebellum and splenocyte frataxin level. Western blot of cerebellum is shown (FIG. 7B) and densitometry of FXN/actin normalization (FIG. 7A) showing dimethyl fumarate, dyclonine, methylene blue, and nifursol induce FXN expression in vivo by 1.5-2 fold.
To determine ability of dimethyl fumarate to reverse the in vivo FXN protein defect, the YG8 FRDA transgenic mouse model was chosen. Hemizygous animals with largest FXN defect, were separated into vehicle and treatment groups. Homozygous mice were used as positive control. Animals were dosed daily with 5 mg/kg dimethyl fumarate via intraperitoneal injection for 6 days. A non-specific HDAC inhibitor was used as a positive control, dosed at 1 mg/kg. At the end of the study, the animals were sacrificed, and processed for biochemical analysis, i.e. Western Blots of treated and vehicle groups of cerebellum and splenocyte frataxin level.

[5] = system: Nrf2 target antioxidant response element (ARE); test: Nrf2/ARE luciferase assay in reporter HeLa cell line; assay type: cell-based, human; details: for Nrf2/ARE activity (ARE-luciferase): 24 hours, threshold mean+2× Standard deviation of the vehicle control
Method: To evaluate the mechanism of FXN induction of the […] that protected from diamide, the potency of each to activate the Nrf2 target antioxidant response element (ARE) was evaluated. 10 of the 20 frataxin inducers interacted with the Nrf2 pathway in a significant way, either positively or negatively. The dashed line=mean+2×SD. […] Dyclonine's induction of ARE/Nrf2 activity was dose-dependent (FIG. 13B).
The Nrf2 reporter HeLa cell line was generated using the Lenti Antioxidant Response Reporter (Qiagen, Valencia, Calif.) system, which expressed firefly luciferase gene and the ARE transcriptional response element. 15,000 cells/well were plated in 90 ul in phenol-free DMEM media in white wall/bottom 96 well plates. Drugs were added and plates incubated at 37 C for 24 hours. 75 microliters of Bright Glo Luciferase Assay Reagent (Promega, Madison, Wis.) with combined lysis solution was added to all wells and allowed to incubate for 5 minutes at room temperature. Luminescence was then read with a PolarStar Omega plate reader (BMG LabTech, Cary, N.C.).

[6] = system: frataxin (FXN) protein in HeLa cells; test: Frataxin protein level in HeLa cells by Western blot; assay type: cell-based, human
Method: as §1, §2, §3

[7] = system: frataxin (FXN) protein in FRDA lymphoblasts; test: In-cell Western of FXN in FRDA lymphoblasts (synergy of FXN-inducing drugs); assay type: cell-based, human; details: 5 micromolar dyclonine with dose-response of dimethyl fumarate, 48 hours
Method: To evaluate potential synergy of identified FXN-inducing drugs, a dose-response of dimethyl fumarate in the absence or presence of 5 micromolar dyclonine was determined in FRDA lymphoblasts incubated for 48 hours in 96 well plates. Whole cells were fixed and permeabilized and for analyzed using in-cell Western technique (protocol below).
In-Cell Western Blot Protocol: 50,000 cells/well were plated in black walled clear bottom 96-well poly-d-lysine coated plates. After drug treatment, media was removed by aspiration and cells were fixed by addition of 100 ul/well of 3.7% formaldehyde in PBS. After 30 minutes, fixing solution was removed and 100 ul/well of 0.1% TritonX100 in PBS was added to all wells. After 40 minutes, cells were blocked with 100 ul blocking buffer (Odyssey, Lincoln, Nebr., USA) for 1 h and incubated with primary antibodies in blocking buffer: anti-frataxin (Mitosciences, Eugene, Oreg.) anti-β-actin (Sigma) for one hour. Cells were washed three times with 1× Tris-buffered saline with Tween 20, and then incubated with 100 ul/well of IRDye 680CW- and IRDye 800CW-coupled (Odyssey) secondary antibodies for 1 h. The cells were washed three times with 1× Tris-buffered saline with Tween 20 and signal was visualized with a LI-COR infrared imager (Odyssey). The pictures were processed by Odyssey version 3.0 infrared imaging software.

O[C@@H](CS)[C@@H](O)CS [DTT]
reversal of sensitivity to diamide ([1]; frataxin deficient DRG cell line / Friedreich's patient fibroblasts): could be reversed

CC(=O)OC[C@H]1O[C@@H]([S-])[C@H](OC(C)=O)[C@@H](OC(C)=O)[C@@H]1OC(C)=O.CCP(CC)CC.[Au+] [auranofin]
death of neurons with frataxin deficiency on treatment [1]: died more rapidly

CN(C)C(=O)/N=N/C(=O)N(C)C [diamide]
death of neurons with frataxin deficiency on treatment [1]: died more rapidly

COC(=O)/C=C/C(=O)OC [dimethyl fumarate]
protection from diamide toxicity [2]: neuroprotective; also recorded: dose-dependent | EC50 [2]: 1300 ± 800 nM | maximum effect of protection from diamide toxicity, fold increase from baseline [2]: 1.9±0.2 fold | FXN induction in FRDA lymphoblasts ([3]; 0.03-30 micromolar dimethyl fumarate, n=3): 2.4 fold | FXN expression in vivo, FXN/actin densitometry ([4]; 5 mg/kg daily intraperitoneal for 6 days, cerebellum, p<0.05): 1.5-2 fold | frataxin in brains and other tissues of the animal model of FRDA [4]: increased frataxin | Nrf2/ARE activity (ARE-luciferase) [5]: induced Nrf2/ARE activity | FXN induction in HeLa cells ([6]; 48 hr, 0.03-30 micromolar dimethyl fumarate, n=3): 1.37 fold | significance of FXN induction by concentration ([6]; at 1, 10 and 30 micromolar dimethyl fumarate, 48 hr (FIG. 9C)): Significant FXN induction

CCCCOc1ccc(C(=O)CCN2CCCCC2)cc1 [dyclonine]
protection from diamide toxicity [2]: protected FRDA cells from diamide induced oxidative stress; also recorded: dose dependent protection | frataxin expression in FRDA lymphoblasts ([3]; 10 micromolar dyclonine, result in words): Induces Frataxin Expression | FXN expression in vivo, FXN/actin densitometry ([4]; 1 mg/kg daily intraperitoneal for 6 days, cerebellum and splenocytes): 1.5-2 fold | frataxin in brains and other tissues of the animal model of FRDA [4]: increased frataxin | potentiation of DMF FXN induction [7]: potentiated DMF FXN induction | Nrf2/ARE activity (ARE-luciferase) [5]: induced Nrf2/ARE activity | dose dependence of induction of ARE/Nrf2 activity ([5]; FIG. 13B): dose-dependent | frataxin expression in HeLa cells ([6]; 48 hr, 10 micromolar dyclonine, result in words): Induces Frataxin Expression

CN(C)c1ccc2nc3ccc(=[N+](C)C)cc-3sc2c1 [methylene blue]
protection from diamide toxicity [2]: neuroprotective | potentiation of DMF-mediated FXN induction ([3]; 3 micromolar methylene blue with 3 micromolar dimethyl fumarate, Western blot): potentiates DMF FXN induction | Fold FXN induction in FRDA lymphoblasts ([3]; 10 nanomolar methylene blue, n=2): 1.7 fold | frataxin in brains and other tissues of the animal model of FRDA [4]: increased frataxin

O=C(N/N=C/c1ccc([N+](=O)[O-])o1)c1cc([N+](=O)[O-])cc([N+](=O)[O-])c1O [nifursol]
protection from diamide toxicity [2]: neuroprotective | frataxin in brains and other tissues of the animal model of FRDA [4]: increased frataxin

Cc1cc2nc3ccc(N(C)C)cc3[s+]c2cc1N [tolonium cl]
EC50 [2]: 100 ± 10 nM | maximum effect of protection from diamide toxicity, fold increase from baseline [2]: 1.9±0.1 fold

mepartricin
Nrf2/ARE activity (ARE-luciferase) [5]: induced Nrf2/ARE activity
